According to US10202379B2, “Substituted polycyclic carbamoyl pyridone derivative prodrug” (priority 2010, dated 2019):
Where two headings read alike, the source gives them in different places.

What was measured:
influenza virus = assay: microbe, parasite or virus in culture; format: cell-based; details: MDBK or MDCK cells, 3 days, WST-8
[1] = target: Cap-dependant Endonuclease (CEN) (RNP fraction, PB1-PB2-PA complex) (Influenza A virus (strain A/Wilson-Smith/1933 H1N1) (Influenza A virus (strain A/WS/1933 H1N1)), UniProt P15659); format: biochemical, influenza A/WSN/33 virus
[2] = unidentified influenza virus, 72 h, read-out: CPE EC50, parent compounds (Reference examples)
[3] = parent compounds (Reference examples), room temperature, 60 minutes

Compound | EC50 (influenza virus; [2]) | IC50 [1, 3] | IC50 [1] | EC50 (influenza virus; parent compounds (Reference examples), read-out: CPE EC50)
C[C@@H](N1CN([C@@H]2c3cccc(Cl)c3SCc3cccc(F)c32)n2ccc(=O)c(O)c2C1=O)C(F)(F)F [Reference example 601] | 8 nM | 25 nM |  | 
C[C@@H](N1CN([C@H]2c3ccc(F)cc3CSc3c(Cl)cccc32)n2ccc(=O)c(O)c2C1=O)C(F)(F)F [Reference example 602] | 4 nM | 5 nM |  | 
C[C@@H](N1CN([C@H]2c3ccccc3CSc3cccc(F)c32)n2ccc(=O)c(O)c2C1=O)C(F)(F)F [Reference example 603] | 15 nM | 37 nM |  | 
O=C1c2c(O)c(=O)ccn2N(C2c3ccccc3CSc3ccccc32)CN1C1COC1 (centres unmarked) [Reference example 609] | 25 nM | 53 nM |  | 
Cc1cccc2c1CSc1c(C)cccc1[C@H]2N1CN([C@H](C)C(F)(F)F)C(=O)c2c(O)c(=O)ccn21 [Reference example 613] | 18 nM |  | 173 nM | 
Cc1cccc2c1CSc1c(F)cccc1[C@H]2N1CN([C@H](C)C(F)(F)F)C(=O)c2c(O)c(=O)ccn21 [Reference example 617] | 17 nM | 53 nM |  | 
C[C@@H](N1CN([C@H]2c3ccc(F)cc3CSc3c(Br)cccc32)n2ccc(=O)c(O)c2C1=O)C(F)(F)F [Reference example 619] | 6 nM | 5 nM |  | 
C[C@@H](N1CN([C@@H]2c3cccc(F)c3SCc3cccc(Cl)c32)n2ccc(=O)c(O)c2C1=O)C(F)(F)F [Reference example 621] | 2 nM |  | 6 nM | 
C[C@@H](N1CN([C@H]2c3cccc(F)c3SCc3cccc(Cl)c32)n2ccc(=O)c(O)c2C1=O)C(F)(F)F [Reference example 622] | 12 nM |  | 89 nM | 
Cc1cccc2c1SCc1c(F)cccc1[C@@H]2N1CN([C@H](C)C(F)(F)F)C(=O)c2c(O)c(=O)ccn21 [Reference example 623] | 3 nM | 21 nM |  | 
C[C@@H](N1CN([C@H]2c3ccccc3CCc3c(F)cccc32)n2ccc(=O)c(O)c2C1=O)C(F)(F)F [Reference example 628] | 13 nM | 43 nM |  | 
O=C1c2c(O)c(=O)ccn2N(C2c3ccccc3CCc3ccccc32)CN1C1COC1 [Reference example 629] | 64 nM | 89 nM |  | 
Cc1cccc2c1CCc1ccccc1C2N1CN([C@H](C)C(F)(F)F)C(=O)c2c(O)c(=O)ccn21 (some centres unmarked) [Reference example 631] | 41 nM | 75 nM |  | 
Cc1cccc2c1CCc1c(C)cccc1C2N1CN([C@H](C)C(F)(F)F)C(=O)c2c(O)c(=O)ccn21 [Reference example 632] | 38 nM | 132 nM |  | 
C[C@@H](N1CN([C@H]2c3ccccc3CCc3cccc(F)c32)n2ccc(=O)c(O)c2C1=O)C(F)(F)F [Reference example 633] | 22 nM | 53 nM |  | 
C[C@@H](N1CN([C@@H]2c3ccccc3CCc3c(F)cccc32)n2ccc(=O)c(O)c2C1=O)C(F)(F)F [Reference example 634] | 17 nM | 103 nM |  | 
C[C@@H](N1CN(C2c3ccccc3CCc3cc(F)c(F)cc32)n2ccc(=O)c(O)c2C1=O)C(F)(F)F (some centres unmarked) [Reference example 636] | 15 nM | 74 nM |  | 
C[C@@H](N1CN(C2c3cccc(F)c3CCc3c(F)cccc32)n2ccc(=O)c(O)c2C1=O)C(F)(F)F [Reference example 638] | 21 nM | 130 nM |  | 
C[C@@H](N1CN(C2c3ccc(F)cc3CCc3cc(F)ccc32)n2ccc(=O)c(O)c2C1=O)C(F)(F)F [Reference example 640] | 6 nM | 57 nM |  | 
C[C@@H](N1CN([C@@H]2c3ccccc3CCc3c(Cl)cccc32)n2ccc(=O)c(O)c2C1=O)C(F)(F)F [Reference example 641] | 23 nM | 46 nM |  | 
COCCCC1N(CC(F)(F)F)C(=O)c2c(O)c(=O)ccn2N1C1c2ccccc2CCc2ccccc21 (centres unmarked) [Reference example 642] | 94 nM |  | 256 nM | 
COCCCC1N(CC(F)(F)F)C(=O)c2c(O)c(=O)ccn2N1C1c2ccc(F)cc2CCc2cc(F)ccc21 (centres unmarked) [Reference example 643] | 132 nM | 163 nM |  | 
COC[C@H](C)N1C(=O)c2c(O)c(=O)ccn2N(C2c3ccccc3CCc3ccccc32)C1CCN(C)C (some centres unmarked) [Reference example 644] | 60 nM |  | 238 nM | 
COCC[C@@H]1N([C@H](C)C(F)(F)F)C(=O)c2c(O)c(=O)ccn2N1C1c2ccccc2CCc2ccccc21 [Reference example 645] | 16 nM | 105 nM |  | 
C[C@@H](N1CN(C(c2ccccc2Cl)c2ccccc2Cl)n2ccc(=O)c(O)c2C1=O)C(F)(F)F [Reference example 648] | 59 nM | 132 nM |  | 
C[C@@H](N1CN(C(c2ccc(F)cc2)c2ccc(F)cc2)n2ccc(=O)c(O)c2C1=O)C(F)(F)F [Reference example 649] | 51 nM | 182 nM |  | 

Compound | EC50 (influenza virus; [2]) | IC50 [1, 3] | IC50 [1] | EC50 (influenza virus; parent compounds (Reference examples), read-out: CPE EC50)
C[C@@H](N1CN(C(c2ccccc2)c2ccc(Cl)cc2)n2ccc(=O)c(O)c2C1=O)C(F)(F)F (some centres unmarked) [Reference example 650] | 103 nM | 219 nM |  | 
C[C@@H](N1CN([C@@H](c2ccccc2)c2ccccc2Cl)n2ccc(=O)c(O)c2C1=O)C(F)(F)F [Reference example 651] | 13 nM | 56 nM |  | 
C[C@@H](N1CN([C@H](c2ccccc2)c2ccccc2Cl)n2ccc(=O)c(O)c2C1=O)C(F)(F)F [Reference example 652] | 79 nM | 330 nM |  | 
C[C@@H](N1CN([C@@H]2c3ccccc3SCc3cccc(Br)c32)n2ccc(=O)c(O)c2C1=O)C(F)(F)F [Reference example 654] | 1 nM | 8 nM |  | 
C[C@@H](N1CN([C@H]2c3cc(F)ccc3CSc3c(F)cccc32)n2ccc(=O)c(O)c2C1=O)C(F)(F)F [Reference example 656] | 19 nM | 70 nM |  | 
C[C@@H](N1CN([C@H]2c3cc(F)ccc3CSc3c(Cl)cccc32)n2ccc(=O)c(O)c2C1=O)C(F)(F)F [Reference example 658] | 19 nM | 53 nM |  | 
C[C@@H](N1CN([C@H]2c3ccccc3SCc3cccc(Br)c32)n2ccc(=O)c(O)c2C1=O)C(F)(F)F [Reference example 661] | 14 nM | 135 nM |  | 
Cc1cccc2c1[C@@H](N1CN([C@H](C)C(F)(F)F)C(=O)c3c(O)c(=O)ccn31)c1ccccc1SC2 [Reference example 662] | 22 nM | 316 nM |  | 
C[C@@H](N1CN([C@@H]2c3ccc(Cl)cc3SCc3c(F)cccc32)n2ccc(=O)c(O)c2C1=O)C(F)(F)F [Reference example 663] | 18 nM | 31 nM |  | 
Cc1cccc2c1[C@H](N1CN([C@H](C)C(F)(F)F)C(=O)c3c(O)c(=O)ccn31)c1ccccc1SC2 [Reference example 665] | 5 nM | 18 nM |  | 
C[C@@H](N1CN([C@@H]2c3ccccc3SCc3cccc(Cl)c32)n2cc(CO)c(=O)c(O)c2C1=O)C(F)(F)F [compound 666] |  |  | 3.36 nM | 3.91 nM
C[C@@H](N1CN([C@H]2c3cc(F)c(F)cc3CSc3ccccc32)n2ccc(=O)c(O)c2C1=O)C(F)(F)F [compound 668] | 3.84 nM |  | 12.6 nM | 
O=C1c2c(O)c(=O)ccn2N([C@@H]2c3ccccc3SCc3cccc(Cl)c32)[C@H]2COCCN12 [compound 682] | 3.5 nM | 19.7 nM |  | 
C[C@@H](N1CN(C2c3ccccc3CCc3cccc(Cl)c32)n2ccc(=O)c(O)c2C1=O)C(F)(F)F (some centres unmarked) [compound 686] | 7.86 nM | 15.1 nM |  | 
C[C@@H](N1CN([C@@H]2c3ccccc3SCc3cccc(C4CC4)c32)n2ccc(=O)c(O)c2C1=O)C(F)(F)F [compound 691] | 4.05 nM | 3.67 nM |  | 
CC(=O)c1cn2c(c(O)c1=O)C(=O)N([C@H](C)C(F)(F)F)CN2[C@H]1c2cc(F)c(F)cc2CSc2ccccc21 [compound 692] | 9.64 nM | 36.9 nM |  | 
Cc1cn2c(c(O)c1=O)C(=O)N([C@H](C)C(F)(F)F)CN2[C@@H]1c2ccccc2SCc2c1ccc(F)c2F [compound 704] | 3.5 nM | 11.1 nM |  | 
CC(=O)c1cn2c(c(O)c1=O)C(=O)N([C@H](C)C(F)(F)F)CN2[C@@H]1c2ccccc2SCc2c1ccc(F)c2F [compound 706] | 7.19 nM | 18.6 nM |  | 
C[C@@H](N1CN([C@@H]2c3ccccc3SCc3cccc(Cl)c32)n2cc(B(O)O)c(=O)c(O)c2C1=O)C(F)(F)F [compound 707] | 3.05 nM | 40.2 nM |  | 
C[C@@H](N1CN([C@H]2c3ccc(F)cc3CSc3ccccc32)n2cc(B(O)O)c(=O)c(O)c2C1=O)C(F)(F)F [compound 708] | 8.49 nM | 46.5 nM |  | 
C[C@@H](N1CN([C@@H]2c3ccccc3SCc3c2ccc(F)c3F)n2cc(B(O)O)c(=O)c(O)c2C1=O)C(F)(F)F [compound 709] | 7.09 nM | 34.3 nM |  | 
CC(O)c1cn2c(c(O)c1=O)C(=O)N([C@H](C)C(F)(F)F)CN2[C@@H]1c2ccccc2SCc2cccc(Cl)c21 (some centres unmarked) [compound 710] | 9.81 nM |  | 20.6 nM | 
C[C@@H](N1CN([C@@H]2c3ccccc3SCc3c2ccc(F)c3F)n2ccc(=O)c(O)c2C1=O)C(F)(F)F [compound 711] | 4.28 nM |  | 5.57 nM | 
C[C@@H](N1CN([C@H]2c3ccccc3CSc3ccccc32)n2cc(CO)c(=O)c(O)c2C1=O)C(F)(F)F [compound 712] | 6.45 nM | 16.4 nM |  | 
C[C@@H](N1CN([C@@H]2c3ccccc3SCc3c2ccc(F)c3F)n2cc(Cl)c(=O)c(O)c2C1=O)C(F)(F)F [compound 716] | 5.6 nM |  | 5.54 nM | 
C[C@@H](N1CN([C@@H]2c3ccccc3SCc3c(Cl)cccc32)n2cc(CO)c(=O)c(O)c2C1=O)C(F)(F)F [compound 719] | 8.36 nM | 2.6 nM |  | 
